Reference: ChEMBL document CHEMBL3885861, “Open TG-GATES”

Species on record: Rattus norvegicus
Assay: Open TG-GATES - Regimen: Single
Format: toxicity, organism-based, Sprague-Dawley
Parameters: regimen Single, gender Male, age 6 weeks
Settings: in vivo, po, route gavage; for A/G / ALP / ALT / AST / BUN / CRE / Ca / Cl / DBIL / GLC / IP / K / LDH / Na / PL / RALB / TBIL / TC / TG / TP / gamma-GTP: tissue Plasma; for APTT / Bas / Eos / Fbg / Hb / Ht / Lym / MCH / MCHC / MCV / Mono / Neu / PT / Plat / RBC / Ret / WBC: tissue Blood; for KIDNEY_L / KIDNEY_R / KIDNEY_TOTAL: tissue Kidney; for LIVER: tissue Liver
[1] = 30 mg/kg, 9 h, dose level Middle
[2] = 30 mg/kg, 24 h, dose level Middle
[3] = 100 mg/kg, 3 h, dose level High

O=C1CN(/N=C/c2ccc([N+](=O)[O-])o2)C(=O)N1 [NITROFURANTOIN]
A/G [1]: 1.6 | ALP [1]: 825.2 IU/L | ALT [1]: 33.2 IU/L | AST [1]: 62 IU/L | BUN [1]: 10.4 mg/dL | CRE [1]: 0.3 mg/dL | Ca [1]: 10.4 mg/dL | Cl [1]: 101.8 meq/L | DBIL [1]: 0.072 mg/dL | GLC [1]: 199 mg/dL | IP [1]: 9.7 mg/dL | K [1]: 3.8 meq/L | LDH [1]: 197.6 IU/L | Na [1]: 139.6 meq/L | PL [1]: 130.2 mg/dL | RALB [1]: 3.3 g/dL | TBIL [1]: 0.1 mg/dL | TC [1]: 67.4 mg/dL | TG [1]: 57.4 mg/dL | TP [1]: 5.4 g/dL | gamma-GTP [1]: 0.4 IU/L | TERMINAL_BW [2]: 231.7 g | APTT [2]: 18.6 s | Bas [2]: 0% | Eos [2]: 1% | Fbg [2]: 219.2 mg/dL | Hb [2]: 13.3 g/dL | Ht [2]: 37.8% | Lym [2]: 77.8% | MCH [2]: 21.9 pg | MCHC [2]: 35.1% | MCV [2]: 62.4 fL | Mono [2]: 2.4% | Neu [2]: 17.4% | PT [2]: 12.7 s | Plat [2]: 115.4 x10_4/uL | RBC [2]: 604.6 x10_4/ul | Ret [2]: 7.1% | WBC [2]: 92 x10_2/uL | KIDNEY_L [2]: 1.1 g | KIDNEY_R [2]: 1.1 g | KIDNEY_TOTAL [2]: 2.1 g | LIVER [2]: 11.1 g | A/G [2]: 1.6 | ALP [2]: 1093.6 IU/L | ALT [2]: 39 IU/L | AST [2]: 67.8 IU/L | BUN [2]: 13.6 mg/dL | CRE [2]: 0.4 mg/dL | Ca [2]: 10.7 mg/dL | Cl [2]: 102.2 meq/L | DBIL [2]: 0.1 mg/dL | GLC [2]: 211.8 mg/dL | IP [2]: 7.6 mg/dL | K [2]: 4.1 meq/L | LDH [2]: 176 IU/L | Na [2]: 139.8 meq/L | PL [2]: 140.8 mg/dL | RALB [2]: 3.3 g/dL | TBIL [2]: 0.2 mg/dL | TC [2]: 69.4 mg/dL | TG [2]: 115 mg/dL | TP [2]: 5.4 g/dL | gamma-GTP [2]: 1 IU/L | TERMINAL_BW [3]: 220.5 g | TERMINAL_BW (100 mg/kg, 3 h, dose level Low): 205.8 g | APTT [3]: 19.6 s | Bas [3]: 0% | Eos [3]: 1% | Fbg [3]: 215.6 mg/dL | Hb [3]: 13.1 g/dL | Ht [3]: 37.2% | Lym [3]: 78.6% | MCH [3]: 21.8 pg | MCHC [3]: 35.1% | MCV [3]: 62.1 fL | Mono [3]: 2.6% | Neu [3]: 16.4% | PT [3]: 12.8 s | Plat [3]: 113 x10_4/uL | RBC [3]: 599.8 x10_4/ul | Ret [3]: 8% | WBC [3]: 80.6 x10_2/uL | APTT (100 mg/kg, 3 h, dose level Low): 16.1 s | Eos (100 mg/kg, 3 h, dose level Low): 1.2% | Fbg (100 mg/kg, 3 h, dose level Low): 227.8 mg/dL | Hb (100 mg/kg, 3 h, dose level Low): 13.4 g/dL | Ht (100 mg/kg, 3 h, dose level Low): 40.5% | Lym (100 mg/kg, 3 h, dose level Low): 75.6% | MCH (100 mg/kg, 3 h, dose level Low): 21.4 pg | MCHC (100 mg/kg, 3 h, dose level Low): 33% | MCV (100 mg/kg, 3 h, dose level Low): 64.7 fL | Mono (100 mg/kg, 3 h, dose level Low): 6.8% | PT (100 mg/kg, 3 h, dose level Low): 11.9 s | Plat (100 mg/kg, 3 h, dose level Low): 124.7 x10_4/uL | RBC (100 mg/kg, 3 h, dose level Low): 625.4 x10_4/ul | Ret (100 mg/kg, 3 h, dose level Low): 7.7% | WBC (100 mg/kg, 3 h, dose level Low): 78.5 x10_2/uL | KIDNEY_L [3]: 1 g | KIDNEY_R [3]: 1 g | KIDNEY_TOTAL [3]: 2 g | KIDNEY_L (100 mg/kg, 3 h, dose level Low): 0.9 g | KIDNEY_TOTAL (100 mg/kg, 3 h, dose level Low): 1.9 g | LIVER [3]: 10 g | LIVER (100 mg/kg, 3 h, dose level Low): 8.6 g | A/G [3]: 1.6 | ALP [3]: 909.6 IU/L | ALT [3]: 38 IU/L | AST [3]: 69.8 IU/L | BUN [3]: 12 mg/dL | CRE [3]: 0.4 mg/dL | Ca [3]: 10.7 mg/dL | Cl [3]: 101.6 meq/L | DBIL [3]: 0.068 mg/dL | GLC [3]: 183.2 mg/dL | IP [3]: 9.2 mg/dL | K [3]: 4 meq/L | LDH [3]: 229.4 IU/L | Na [3]: 140.4 meq/L | PL [3]: 137.6 mg/dL | RALB [3]: 3.4 g/dL | TBIL [3]: 0.1 mg/dL | TC [3]: 77.2 mg/dL | TG [3]: 66.2 mg/dL | TP [3]: 5.5 g/dL | gamma-GTP [3]: 0.8 IU/L | A/G (100 mg/kg, 3 h, dose level Low): 2.4 | ALP (100 mg/kg, 3 h, dose level Low): 1349.8 IU/L | ALT (100 mg/kg, 3 h, dose level Low): 39.2 IU/L | AST (100 mg/kg, 3 h, dose level Low): 64.6 IU/L | BUN (100 mg/kg, 3 h, dose level Low): 11.2 mg/dL | CRE (100 mg/kg, 3 h, dose level Low): 0.3 mg/dL | Ca (100 mg/kg, 3 h, dose level Low): 11.1 mg/dL | Cl (100 mg/kg, 3 h, dose level Low): 104.2 meq/L | DBIL (100 mg/kg, 3 h, dose level Low): 0.006 mg/dL | GLC (100 mg/kg, 3 h, dose level Low): 187.6 mg/dL | IP (100 mg/kg, 3 h, dose level Low): 9.6 mg/dL | K (100 mg/kg, 3 h, dose level Low): 4.3 meq/L | LDH (100 mg/kg, 3 h, dose level Low): 91.8 IU/L | Na (100 mg/kg, 3 h, dose level Low): 138.8 meq/L | PL (100 mg/kg, 3 h, dose level Low): 144 mg/dL | RALB (100 mg/kg, 3 h, dose level Low): 4 g/dL | TBIL (100 mg/kg, 3 h, dose level Low): 0.032 mg/dL | TC (100 mg/kg, 3 h, dose level Low): 91.2 mg/dL | TG (100 mg/kg, 3 h, dose level Low): 63.2 mg/dL | TP (100 mg/kg, 3 h, dose level Low): 5.7 g/dL | gamma-GTP (100 mg/kg, 3 h, dose level Low): 1 IU/L | TERMINAL_BW (100 mg/kg, 6 h, dose level High): 216.2 g
